Read-outs that look alike come from different tables or passages of the source.
Experiments:
[1] = test system: T. b. rhodesiense KETRi 243 (melarsoprol, pentamidine- and diminazene diaceturate-resistant); set-up: method as in PMID 19736009; settings: strain KETRI 243; average of at least two determinations; read-out: IC50 T.b. rhod; cited from earlier work
[2] = test system: P. falciparum K1 (chloroquine-resistant); test: In vitro anti-plasmodial activity, K1; format: cell-based, Plasmodium falciparum
Procedure: (§5) The anti-T. cruzi activity was determined using intracellular amastigote forms of T. cruzi Tulahuen strain C2C4 in rat skeletal myoblasts (L6 cells) as described previously [24]. The anti-L. donovani activity was determined using the amastigotes of L. donovani strain MHOM-ET-67/L82 as described previously [24]. […] The cytotoxicity assays against rat skeletal myoblast L6-cells were performed as described previously [24].

[3] = test system: T. b. rhodesiense KETRi 243 (melarsoprol, pentamidine- and diminazene diaceturate-resistant); test: In vitro antitrypanosomal activity, T.b. rhodesiense KETRI 243; format: cell-based, Trypanosoma brucei rhodesiense; settings: Table S1, from IC50 of Table 1; for IC50: Trypanosoma brucei, RHODESIENSE, read-out: pIC50 T.b. rhod (converted)
Procedure: as §5

[4] = test system: rat skeletal myoblast L6-cells; test: Cytotoxicity against L6 cells; format: cell-based; settings: cytotoxicity, read-out: IC50 L6 Cells
Procedure: as §5

poly(dA-dT) = test: DNA thermal melting with poly(dA-dT); format: binding; settings: 1:5 compound to DNA base pair ratio; mean of at least two determinations
Procedure: (§1) In addition to the determination of the potency of the synthesized compounds against different strains of cell lines (Table 1), thermal melting experiments of these compounds were also conducted with poly(dA-dT) and calf thymus DNA (Table S1, supplementary file). […] The weaker binding to DNA (lower ΔTm values) compared to pentamidine might be attributed to the lower lipophilicity and higher PSA properties of these compounds since they would be expected to bind less favorably in the less polar environment of the minor grove of DNA as was reported for the aza-analogues of furamidine. […] Therefore, ability of these compounds to act at other potential targets cannot be ruled out.
(§2) The DNA binding affinity of the tested compounds was determined by measuring the change in mid-point of the thermal denaturation curves for a 1:5 compound to DNA base pair ratio as described previously. Each Tm value reported in Table S1 (supplementary file) represents the mean of at least two experimental determinations.

calf thymus DNA = test: DNA thermal melting with calf thymus DNA; format: binding; settings: 1:5 compound to DNA base pair ratio; mean of at least two determinations
Procedure: as §1, §2

[5] = test system: intracellular amastigote forms of T. cruzi Tulahuen strain C2C4 in rat skeletal myoblasts (L6 cells); test: In vitro anti-T. cruzi activity; format: cell-based, Trypanosoma cruzi; settings: average of at least two determinations
Procedure: as §5

[6] = test system: T. b. brucei Lab 110 EATRO (pentamidine-sensitive); test: In vitro antitrypanosomal activity, T.b. brucei Lab 110 EATRO; format: cell-based, Trypanosoma brucei brucei; settings: Table S1, from IC50 of Table 1; for IC50: Trypanosoma brucei, read-out: pIC50 T.b. brucei (converted)
Procedure: The in vitro assays with the two isolates of T. brucei were conducted according to previously described procedures [14].

[7] = test system: amastigotes of L. donovani strain MHOM-ET-67/L82; test: In vitro anti-L. donovani activity; format: cell-based, Leishmania donovani; settings: average of at least two determinations
Procedure: as §5

[8] = test system: T. b. brucei Lab 110 EATRO (pentamidine-sensitive); set-up: method as in PMID 19736009; settings: strain Lab 110; average of at least two determinations; cited from earlier work
[9] = test system: P. falciparum NF54 (chloroquine-sensitive); test: In vitro anti-plasmodial activity, NF54; format: cell-based, Plasmodium falciparum; settings: chloroquine-sensitive strain; read-out: IC50 P. falcip NF54
[10] = test system: T.b. brucei Lab 110 EATRO; test: In vivo trypanocidal activity in mice, Lab 110 EATRO; settings: 1.0, 2.5, 5, 10 mg/kg/day i.p. for 3 days (all doses)
Procedure: (§3) The compounds were administered via the intraperitoneal route at doses ranging from 1.0 mg/kg/day to 25.0 mg/kg/day for 3 days unless otherwise noted. Pentamidine was used as the reference compound. All three of the tested compounds were effective in curing mice infected with the Lab 110 EATRO or KETRI 2002 strains at several doses.
(§4) The in vivo studies were conducted according to the procedures described previously.

[11] = test system: T.b. rhodesiense KETRI 2538; test: In vivo trypanocidal activity in mice, KETRI 2538; settings: KETRI 2538; 1.0, 5, 10 mg/kg/day i.p. for 3 days (all doses)
Procedure: as §3, §4

[12] = test system: T.b. rhodesiense KETRI 2002; test: In vivo trypanocidal activity in mice, KETRI 2002; settings: KETRI 2002; 1.0, 5, 10 mg/kg/day i.p. for 3 days (all doses)
Procedure: as §3, §4

[13] = test system: T.b. rhodesiense KETRI 1992; test: In vivo trypanocidal activity in mice, KETRI 1992; settings: for Mean Survival: KETRI 1992
[14] = Plasmodium falciparum, K1, Table S1, from IC50 of Table 1, read-out: pIC50 P. falcip K1 (converted)
[15] = Plasmodium falciparum, K1, chloroquine-resistant strain, read-out: IC50 P. falcip K1
[16] = Trypanosoma cruzi, TULAHUEN, L6
[17] = chloroquine-resistant strain, read-out: IC50 P. falcip K1

## N#Cc1ccc(NC(=O)CCCC(=O)Nc2ccc(C#N)cc2)cc1 [Compound 3]
[1]
  IC50: 7900 nM
[2]; [14]
  IC50: 44800 nM
[2]; [15]
  IC50: 44800 nM
[3]
  IC50: 7910 nM
[4]; Rattus norvegicus, L6
  IC50: > 100000 nM
poly(dA-dT)
  Thermal Melting ΔTm Poly(dA-dT): 0.15 C
Calf thymus DNA
  Thermal Melting ΔTm CT-DNA: −0.2 C
[5]; [16]
  IC50: > 100000 nM
[6]
  IC50: 6500 nM
[7]; Leishmania donovani
  IC50: > 100000 nM
[8]
  IC50: 6500 nM

## N=C(N)c1cccc(NC(=O)CCCCC(=O)Nc2cccc(C(=N)N)c2)c1 [Compound 7]
[1]
  IC50: 21 nM
[2]; Table S1, from IC50 of Table 1
  pIC50 P. falcip K1: 6.420
[2]; [17]
  IC50: 380 nM
[3]
  pIC50 T.b. rhod: 7.678
[4]
  IC50: > 100000 nM
poly(dA-dT)
  Thermal Melting ΔTm Poly(dA-dT): 13.8 C
[5]
  IC50: > 100000 nM
[6]
  pIC50 T.b. brucei: 7.387
[7]
  IC50: > 100000 nM
[8]
  IC50: 41 nM

## NC(=O)c1ccc(NC(=O)CCCCC(=O)Nc2ccc(C(N)=O)cc2)cc1 [Compound 8]
[1]
  IC50: 1100 nM
[2]; [15]
  IC50: > 100000 nM
[3]
  IC50: 1100 nM
[4]; Rattus norvegicus, L6
  IC50: > 100000 nM
poly(dA-dT)
  Thermal Melting ΔTm Poly(dA-dT): 0.0 C
[5]; [16]
  IC50: > 100000 nM
[6]
  IC50: 2800 nM
[7]; Leishmania donovani
  IC50: > 100000 nM
[8]
  IC50: 2800 nM

## NC(=O)c1cccc(NC(=O)CCCCC(=O)Nc2cccc(C(N)=O)c2)c1 [Compound 9]
[1]
  IC50: 1970 nM
[2]; [15]
  IC50: > 100000 nM
[3]
  IC50: 1970 nM
[4]; Rattus norvegicus, L6
  IC50: 46400 nM
poly(dA-dT)
  Thermal Melting ΔTm Poly(dA-dT): 0.0 C
[5]; [16]
  IC50: > 100000 nM
[7]; Leishmania donovani
  IC50: > 100000 nM

## N=C(N)c1ccc(NC(=O)CCCCC(=O)Nc2cccc(C(=N)N)c2)cc1 [Compound 10]
[1]
  IC50: 7 nM
[2]; Table S1, from IC50 of Table 1
  pIC50 P. falcip K1: 8.398
[2]; [17]
  IC50: 4 nM
[3]
  pIC50 T.b. rhod: 8.155
[9]
  IC50: 15 nM
[4]
  IC50: > 100000 nM
[5]
  IC50: > 100000 nM
[6]
  pIC50 T.b. brucei: 7.921
[7]
  IC50: > 100000 nM
[8]
  IC50: 12 nM

## N=C(N)c1ccc(NC(=O)CCCCCCC(=O)Nc2ccc(C(=N)N)cc2)cc1 [Compound 12]
[1]
  IC50: 1 nM
[2]; Table S1, from IC50 of Table 1
  pIC50 P. falcip K1: 8.222
[2]; [17]
  IC50: 6 nM
[3]
  pIC50 T.b. rhod: 9.000
[9]
  IC50: 2 nM
[4]
  IC50: 38400 nM
poly(dA-dT)
  Thermal Melting ΔTm Poly(dA-dT): 13.2 C
Calf thymus DNA
  Thermal Melting ΔTm CT-DNA: 7.1 C
[5]
  IC50: > 100000 nM
[6]
  pIC50 T.b. brucei: 8.523
[7]
  IC50: > 100000 nM
[8]
  IC50: 3 nM

## N=C(N)c1ccc(NC(=O)CCCCCCCCC(=O)Nc2ccc(C(=N)N)cc2)cc1 [Compound 14]
[1]
  IC50: 4 nM
[2]; Table S1, from IC50 of Table 1
  pIC50 P. falcip K1: 7.921
[2]; [17]
  IC50: 12 nM
[3]
  pIC50 T.b. rhod: 8.398
[9]
  IC50: 14 nM
[4]
  IC50: 78600 nM
poly(dA-dT)
  Thermal Melting ΔTm Poly(dA-dT): 10.0 C
Calf thymus DNA
  Thermal Melting ΔTm CT-DNA: 6.6 C
[5]
  IC50: 76400 nM
[6]
  pIC50 T.b. brucei: 8.699
[7]
  IC50: 68500 nM
[8]
  IC50: 2 nM

## N=C(N)c1ccc(OCCCCCOc2ccc(C(=N)N)cc2)cc1 [Pentamidine, pentamidine, reference compound]
[1]
  IC50: 2 nM
[2]; [14]
  IC50: 180 nM
[10]
  Mean Survival: >30 days
[11]
  Mean Survival: >30 days
[12]
  Mean Survival: >30 days
[3]
  IC50: 2 nM
[13]; 1 mg/kg/day i.p. for 3 days
  Mean Survival: 12.6 days
[13]; 5 mg/kg/day i.p. for 3 days
  Mean Survival: 17.0 days
[13]; 10 mg/kg/day i.p. for 3 days
  Mean Survival: 22.2 days
[13]; drug-resistant KETRI 1992, i.p., 3 days
  curing of infected mice: ineffective
poly(dA-dT)
  Thermal Melting ΔTm Poly(dA-dT): 21.6 C
Calf thymus DNA
  Thermal Melting ΔTm CT-DNA: 11.6 C
[6]
  IC50: 2 nM
